Data on 1 compound can be found in patent publication US10945989B2, “Perinatal treatment with a flavonoid agonist of the TrkB receptor for BDNF rescues neurogenesis and behavior in the Ts65Dn mouse model of DS” (ALMA MATER STUDIORUM—Universita' di Bologna, priority 2017, dated 2021).

Data set [1] in a line: Prenatal treatment: abortion rate, pups per litter, mortality of progeny. The method, then:
Ts65Dn females (n=4) were bred C57BL/6JEi×C3SnHeSnJ (B6EiC3) F1 males (n=4). Conception was determined by examining the vaginal plug. Pregnant females received a daily subcutaneous injection of either 7,8-DHF (Sigma-Aldrich) in PBS with 2% DMSO (dose: 5 mg/kg) or vehicle from the embryonic (E) day 10 (E10) to the day of delivery (E20/21). […] On postnatal day 2 (P2) the progeny of 7,8-DHF-treated and vehicle-treated females received an intraperitoneal injection (150 μg/g body weight) of BrdU (Sigma) in 0.9% NaCl solution and were killed after 2 h (on P2; 4-8 animals for each group). Vehicle-treated females and their progeny will be called hereafter untreated mice. The body weight of P2 mice was recorded prior to sacrifice. After sacrifice, brain was excised and weighed.
The Ts65Dn strain is characterized by a high mortality rate during gestation (Roper et al., 2006).

For data set [2], the system named is dendritic spines of granule neurons. Kind of data set: Golgi staining: dendritic spine density of granule cells. It is filed as in vivo, mouse. The settings on record: 5.0 mg/kg P3-P15. The method, then:
Euploid and Ts65Dn mice received a daily subcutaneous injection (at 9-10 am) of 7,8-DHF (5.0 mg/kg in vehicle: PBS with 1% DMSO) or vehicle from postnatal day 3 (P3) to postnatal day 15. This timing was chosen because it corresponds to that previously used to test the effects of fluoxetine and other pharmacotherapies in the neonate Ts65Dn mouse (Bianchi et al., 2010b; Giacomini et al., 2015; Stagni et al., 2016). Mice that received 7,8-DHF will be called “treated mice” (treated euploid mice: n=25; treated Ts65Dn mice: n=15). Mice that received the vehicle will be called “untreated mice” (untreated euploid mice: n=35; untreated Ts65Dn mice: n=21). […] The brains were excised and cut along the midline. […]
In Golgi-stained sections from the DG of P15 mice, spines of granule cells were counted using a 100× oil immersion objective lens (1.4 NA). […] For each neuron, 2-3 segments were analyzed in the outer and inner half of the molecular layer, respectively. For each animal, spines were counted in at least 8 neurons. The length of each sampled dendritic segment was determined by tracing its profile and the number of spines was counted manually. The linear spine density was calculated by dividing the total number of spines by the length of the dendritic segment. Spine density was expressed as number of spines per 100 μm dendrite.

For data set [3], the system named is NPCs from the SGZ of Ts65Dn mice. In words: Neuron maturation: cells exhibiting neuritic processes, SGZ NPCs. It is filed as cell-based, mouse. The settings on record: 96 h, vs standard medium. How it is done: (§1) Cells were isolated from the subventricular zone (SVZ) of the lateral ventricle and the subgranular zone (SGZ) of the hippocampal dentate gyrus (DG) of newborn (P1-P2) euploid and Ts65Dn mice. Briefly, brains were removed, the SVZ and SGZ regions were isolated and individually collected in ice-cold PIPES buffer pH 7.4. After centrifugation, tissue was digested for 10 min at 37° C. using Trypsin/EDTA 0.25% (Life Technologies) aided by gentle mechanical dissociation. Cell suspension from each individual mouse was plated onto 25 cm^2 cell-culture flask (Thermo Fisher Scientific) and cultured as floating neurospheres in medium containing basic fibroblast growth factor (bFGF, 10 ng/ml; Peprotech) and epidermal growth factor (EGF, 20 ng/ml; Peprotech) using an established protocol (Meneghini et al., 2014). […] Cell proliferation was quantified as relative luminescence units (RLU) values using Cell Titer-Glo viability assay reagent (Promega) on aVictor^3-V plate reader (PerkinElmer). […] In each experiment, five fields/well (corresponding to about 150-200 cells/well) were counted with a 60× objective by a Leica DMIRB inverted fluorescence microscope. Immunoreactive cells were counted and their percentage over total viable cells was calculated. […]

The test system of data set [4] is NPCs from the SVZ of Ts65Dn mice. Kind of data set: Differentiation of NPC cultures (MAP2/Nestin immunolocalization). It is filed as cell-based, mouse. The note with it: 96 h, differentiating conditions. The method, then: as §1

Each structure is given as a SMILES string.

Regarding `O=c1cc(-c2ccccc2)oc2c(O)c(O)ccc12` [7,8-DHF, 7,8-dihydroxyflavone], the “mean number of pups per litter” value in data set [1] (female, Ts65Dn, mouse, in vivo) amounted to 5.33±2.04. For the same compound, the spontaneous abortion result in data set [1] (mouse, in vivo) is “none of untreated and treated females underwent spontaneous abortion”. Besides, the “mortality rate of the progeny” value in data set [1] (treated females, mean±ES, vehicle 0.00±0.00, p=0.219) came to 0.66±0.81. Further, the “spine density of granule neurons” value in data set [2] (P15 Ts65Dn mice) is on record as “became similar to that of euploid mice”; in data set [2] (P15 euploid mice), “no effect on spine density”. Besides, in data set [3], the “concentrations that increased the percentage of cells exhibiting neuritic processes” value is reported as “higher than 1.1 μM”. Further, the “percentage of Nestin+/MAP2- cells” value in data set [4] was “no change”. The “percentage of MAP2+/Nestin− cells” value in data set [4] (all concentrations, vs standard medium) was “large increase”.
